The values that follow come from ChEMBL document CHEMBL1201862, “PubChem BioAssay data set” (2004).

Test [1] has as its target Neurotensin receptor type 1 (Homo sapiens, UniProt P30989). Format: functional.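 Further: Image-based confirmatory dose-response assay measuring agonist activity at NTR1; NTR1-expressing U2OS osteosarcoma cells imaged for beta-arrestin GFP spot formation; agonist potency where compounds increase beta-arrestin recruitment.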
The nature of test [2]: HepG2 cell cytotoxicity, dose response, cytotoxicity control for non-replicating M. tuberculosis project (AID 489018). The conditions noted are these: Mycobacterium tuberculosis. Format: functional.
A short description of test [3]: THP-1 cell cytotoxicity, dose response, cytotoxicity control for non-replicating M. tuberculosis project (AID 489025). Format: functional.
For test [4], the system named is BJ. Briefly: cells. It counts as functional, cell-based. The following applies: Homo sapiens.
Test [5] can be described thus: growth suppression of PTEN-null colon cells, dose response, cell-based, HCT116 PTEN knockout (AID 1047).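 Further: HCT116 colon tumor cells with PTEN knocked out; cells exposed to compound for 60 hours before readout; potency for loss of cell viability measured by luminescence.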 It counts as functional.
In the next test the test system is INS1. Put plainly: beta cell apoptosis inhibitors, cytokine rescue, dose response, luminescence, retest (AID 449756).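 Further: cell death triggered by IL-1 beta plus TNF-alpha plus IFN-gamma mixture; protective hits raise ATP signal compared with cytokine alone wells.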 It counts as functional, cell-based. The following applies: Rattus norvegicus.
For test [6], the target named is T1, Replicative DNA helicase DnaB (Mycobacterium tuberculosis, UniProt P9WMR3).
T1 sequence (P9WMR3 whole entry): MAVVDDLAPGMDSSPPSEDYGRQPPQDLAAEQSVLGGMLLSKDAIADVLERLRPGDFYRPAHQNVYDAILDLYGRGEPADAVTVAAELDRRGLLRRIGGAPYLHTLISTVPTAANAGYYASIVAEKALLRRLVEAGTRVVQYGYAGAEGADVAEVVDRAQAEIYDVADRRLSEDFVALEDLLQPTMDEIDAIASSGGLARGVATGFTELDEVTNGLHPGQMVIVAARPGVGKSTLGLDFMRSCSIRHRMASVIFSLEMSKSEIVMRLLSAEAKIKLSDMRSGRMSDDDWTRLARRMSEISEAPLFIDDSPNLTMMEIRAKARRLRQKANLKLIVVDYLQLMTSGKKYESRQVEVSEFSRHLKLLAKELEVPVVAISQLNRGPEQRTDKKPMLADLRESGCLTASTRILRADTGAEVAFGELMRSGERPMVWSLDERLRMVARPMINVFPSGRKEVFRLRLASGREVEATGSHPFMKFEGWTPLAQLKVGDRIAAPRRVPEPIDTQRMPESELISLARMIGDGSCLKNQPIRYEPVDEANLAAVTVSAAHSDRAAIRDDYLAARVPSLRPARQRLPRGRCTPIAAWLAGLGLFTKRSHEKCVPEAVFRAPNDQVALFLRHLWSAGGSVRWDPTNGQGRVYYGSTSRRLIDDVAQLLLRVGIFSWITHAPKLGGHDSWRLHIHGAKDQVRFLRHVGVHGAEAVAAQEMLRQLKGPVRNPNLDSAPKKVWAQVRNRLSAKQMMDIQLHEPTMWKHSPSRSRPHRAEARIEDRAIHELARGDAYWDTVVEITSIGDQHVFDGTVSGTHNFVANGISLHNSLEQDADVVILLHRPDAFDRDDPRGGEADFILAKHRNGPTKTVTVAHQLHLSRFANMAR
Briefly: DnaB intein splicing inhibitors, dose response, biochemical, cell-free fluorescence (AID 449749). Format: functional.

For another test, the target named is T2, Protein RecA (Mycobacterium tuberculosis, UniProt P9WHJ3).
T2 sequence (P9WHJ3 whole entry): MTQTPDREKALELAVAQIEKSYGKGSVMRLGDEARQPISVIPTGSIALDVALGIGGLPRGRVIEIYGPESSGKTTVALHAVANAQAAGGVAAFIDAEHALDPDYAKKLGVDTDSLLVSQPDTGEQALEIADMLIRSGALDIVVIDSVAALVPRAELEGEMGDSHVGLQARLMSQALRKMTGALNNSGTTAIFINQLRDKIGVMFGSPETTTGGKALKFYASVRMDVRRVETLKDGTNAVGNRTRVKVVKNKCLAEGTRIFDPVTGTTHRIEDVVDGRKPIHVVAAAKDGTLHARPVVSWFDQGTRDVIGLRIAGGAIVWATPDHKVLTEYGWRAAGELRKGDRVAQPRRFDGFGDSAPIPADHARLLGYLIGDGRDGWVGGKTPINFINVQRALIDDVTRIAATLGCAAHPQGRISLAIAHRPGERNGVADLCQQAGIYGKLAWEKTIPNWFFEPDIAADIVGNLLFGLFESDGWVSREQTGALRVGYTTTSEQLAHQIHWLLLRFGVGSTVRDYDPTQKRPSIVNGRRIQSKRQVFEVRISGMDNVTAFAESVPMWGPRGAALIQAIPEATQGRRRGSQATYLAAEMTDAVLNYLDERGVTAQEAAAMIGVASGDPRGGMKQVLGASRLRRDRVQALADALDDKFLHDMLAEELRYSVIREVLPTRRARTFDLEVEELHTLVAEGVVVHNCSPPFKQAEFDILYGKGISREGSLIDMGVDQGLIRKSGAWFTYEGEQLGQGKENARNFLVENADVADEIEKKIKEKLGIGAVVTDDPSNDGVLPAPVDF
Briefly: Fluorescence Cell-Free Homogeneous Dose Retest to Identify Inhibitors of RecA-Intein Splicing Activity. [Related pubchem assays (depositor defined):AID2097, AID2223, AID489010, AID492950]. Format: functional.

A further test deals with Beta Lactamase (Pseudomonas aeruginosa, UniProt Q932Y6). Put plainly: beta-lactamase reporter inhibitor potency, dose response, artefact control for NOD2-RIPK2 interaction inhibitor project, BLA reporter cells, FRET fluorescence (AID 651552). Format: functional, cell-based.
Beta Lactamase, sequence (Q932Y6 whole entry): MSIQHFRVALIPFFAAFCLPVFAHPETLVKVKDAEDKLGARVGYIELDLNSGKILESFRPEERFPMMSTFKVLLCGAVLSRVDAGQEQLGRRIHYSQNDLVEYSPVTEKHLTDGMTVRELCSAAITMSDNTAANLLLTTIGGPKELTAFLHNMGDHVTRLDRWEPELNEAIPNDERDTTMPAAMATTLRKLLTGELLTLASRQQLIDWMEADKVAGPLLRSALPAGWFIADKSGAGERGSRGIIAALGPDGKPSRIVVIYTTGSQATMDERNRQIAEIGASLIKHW
In another test the target is Genome polyprotein (dengue virus type 2, UniProt P29990). Briefly: Dengue-2 NS5 methyltransferase inhibitors, primary screen, biochemical, confirmation dose response (AID 588689). Format: functional.
Genome polyprotein, sequence (P29990 2492-3391 limits assumed): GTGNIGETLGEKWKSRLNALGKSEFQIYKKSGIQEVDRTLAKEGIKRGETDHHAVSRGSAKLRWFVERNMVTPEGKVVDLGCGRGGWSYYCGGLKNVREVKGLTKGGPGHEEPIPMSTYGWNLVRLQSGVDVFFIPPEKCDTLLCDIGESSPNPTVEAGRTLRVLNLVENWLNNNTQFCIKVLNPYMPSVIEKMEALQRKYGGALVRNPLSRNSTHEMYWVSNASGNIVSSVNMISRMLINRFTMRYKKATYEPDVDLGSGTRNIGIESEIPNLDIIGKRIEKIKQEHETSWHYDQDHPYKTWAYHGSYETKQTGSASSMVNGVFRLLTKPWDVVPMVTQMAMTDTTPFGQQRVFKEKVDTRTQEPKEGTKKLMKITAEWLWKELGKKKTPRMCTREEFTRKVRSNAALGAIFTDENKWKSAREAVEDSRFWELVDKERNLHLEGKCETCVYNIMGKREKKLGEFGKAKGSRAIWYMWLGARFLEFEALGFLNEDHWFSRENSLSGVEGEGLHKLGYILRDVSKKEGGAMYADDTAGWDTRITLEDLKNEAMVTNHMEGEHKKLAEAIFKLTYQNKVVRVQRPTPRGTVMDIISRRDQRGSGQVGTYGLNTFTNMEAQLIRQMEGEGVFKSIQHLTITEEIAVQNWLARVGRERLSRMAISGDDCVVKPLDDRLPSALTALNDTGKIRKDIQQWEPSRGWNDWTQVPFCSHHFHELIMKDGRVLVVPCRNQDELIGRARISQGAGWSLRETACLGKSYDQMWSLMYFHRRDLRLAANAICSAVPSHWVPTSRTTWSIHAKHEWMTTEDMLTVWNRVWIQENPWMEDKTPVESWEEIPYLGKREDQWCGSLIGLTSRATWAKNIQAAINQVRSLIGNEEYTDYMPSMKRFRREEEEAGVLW
The nature of test [7]: cytotoxicity toward DRD oncogenic fibroblasts, dose response, cell-based, non-viral oncogenic, luminescence (AID 1934). Format: functional. The conditions noted are these: Homo sapiens.
Test [8] in a line: growth suppression of beta-catenin-knockout colon cells, dose response, cell-based, HCT116, human colon tumor (AID 1045).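 Further: HCT116 colon tumor cells with beta catenin knocked out; cells exposed to compound for 60 hours.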 It counts as functional.
The test system of another test is Vero. Put plainly: Vero cell cytotoxicity, cytotoxicity control for flavivirus capping enzyme inhibitors (AID 588742). The following applies: Chlorocebus sabaeus. It counts as functional.
Test [9] addresses Heat shock protein HSP 90-alpha (Homo sapiens, UniProt P07900). Format: functional, organism-based.
A short description of a further test: cells. It counts as functional.
Test [10] in a line: Fluorescence-based cell-based high throughput dose response assay for inhibitors of the interaction of nucleotide-binding oligomerization domain containing 2 (NOD2) and the receptor-interacting serine-threonine kinase 2 (RIPK2). Format: functional. The following applies: Homo sapiens.
A short description of test [11]: Vero E6 cell cytotoxicity, dose response, cytotoxicity control for non-replicating M. tuberculosis project, secondary assay (AID 492998). The following applies: Vero C1008. Format: functional, VeroE6.
Test [12] deals with BJ. Put plainly: cytotoxicity toward BJ-TERT-LT-ST fibroblasts, dose response, cell-based, RAS-independent, luminescence (AID 1935).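 Further: BJ fibroblasts immortalized with TERT plus LT and ST oncogenes.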 Format: functional. The conditions noted are these: Homo sapiens.
In test [13] the target is T3, Fatty acid synthase (Homo sapiens, UniProt P49327). Briefly: FAS thioesterase domain inhibitors, dose response, biochemical, endpoint fluorescence intensity, uHTS hits (AID 624327).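 Further: fluorescence from hydrolysis of an O-methyl fluorescein acyl ester substrate by the enzyme.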 Format: functional.
T3 sequence (P49327 whole entry, the tested form may be a part): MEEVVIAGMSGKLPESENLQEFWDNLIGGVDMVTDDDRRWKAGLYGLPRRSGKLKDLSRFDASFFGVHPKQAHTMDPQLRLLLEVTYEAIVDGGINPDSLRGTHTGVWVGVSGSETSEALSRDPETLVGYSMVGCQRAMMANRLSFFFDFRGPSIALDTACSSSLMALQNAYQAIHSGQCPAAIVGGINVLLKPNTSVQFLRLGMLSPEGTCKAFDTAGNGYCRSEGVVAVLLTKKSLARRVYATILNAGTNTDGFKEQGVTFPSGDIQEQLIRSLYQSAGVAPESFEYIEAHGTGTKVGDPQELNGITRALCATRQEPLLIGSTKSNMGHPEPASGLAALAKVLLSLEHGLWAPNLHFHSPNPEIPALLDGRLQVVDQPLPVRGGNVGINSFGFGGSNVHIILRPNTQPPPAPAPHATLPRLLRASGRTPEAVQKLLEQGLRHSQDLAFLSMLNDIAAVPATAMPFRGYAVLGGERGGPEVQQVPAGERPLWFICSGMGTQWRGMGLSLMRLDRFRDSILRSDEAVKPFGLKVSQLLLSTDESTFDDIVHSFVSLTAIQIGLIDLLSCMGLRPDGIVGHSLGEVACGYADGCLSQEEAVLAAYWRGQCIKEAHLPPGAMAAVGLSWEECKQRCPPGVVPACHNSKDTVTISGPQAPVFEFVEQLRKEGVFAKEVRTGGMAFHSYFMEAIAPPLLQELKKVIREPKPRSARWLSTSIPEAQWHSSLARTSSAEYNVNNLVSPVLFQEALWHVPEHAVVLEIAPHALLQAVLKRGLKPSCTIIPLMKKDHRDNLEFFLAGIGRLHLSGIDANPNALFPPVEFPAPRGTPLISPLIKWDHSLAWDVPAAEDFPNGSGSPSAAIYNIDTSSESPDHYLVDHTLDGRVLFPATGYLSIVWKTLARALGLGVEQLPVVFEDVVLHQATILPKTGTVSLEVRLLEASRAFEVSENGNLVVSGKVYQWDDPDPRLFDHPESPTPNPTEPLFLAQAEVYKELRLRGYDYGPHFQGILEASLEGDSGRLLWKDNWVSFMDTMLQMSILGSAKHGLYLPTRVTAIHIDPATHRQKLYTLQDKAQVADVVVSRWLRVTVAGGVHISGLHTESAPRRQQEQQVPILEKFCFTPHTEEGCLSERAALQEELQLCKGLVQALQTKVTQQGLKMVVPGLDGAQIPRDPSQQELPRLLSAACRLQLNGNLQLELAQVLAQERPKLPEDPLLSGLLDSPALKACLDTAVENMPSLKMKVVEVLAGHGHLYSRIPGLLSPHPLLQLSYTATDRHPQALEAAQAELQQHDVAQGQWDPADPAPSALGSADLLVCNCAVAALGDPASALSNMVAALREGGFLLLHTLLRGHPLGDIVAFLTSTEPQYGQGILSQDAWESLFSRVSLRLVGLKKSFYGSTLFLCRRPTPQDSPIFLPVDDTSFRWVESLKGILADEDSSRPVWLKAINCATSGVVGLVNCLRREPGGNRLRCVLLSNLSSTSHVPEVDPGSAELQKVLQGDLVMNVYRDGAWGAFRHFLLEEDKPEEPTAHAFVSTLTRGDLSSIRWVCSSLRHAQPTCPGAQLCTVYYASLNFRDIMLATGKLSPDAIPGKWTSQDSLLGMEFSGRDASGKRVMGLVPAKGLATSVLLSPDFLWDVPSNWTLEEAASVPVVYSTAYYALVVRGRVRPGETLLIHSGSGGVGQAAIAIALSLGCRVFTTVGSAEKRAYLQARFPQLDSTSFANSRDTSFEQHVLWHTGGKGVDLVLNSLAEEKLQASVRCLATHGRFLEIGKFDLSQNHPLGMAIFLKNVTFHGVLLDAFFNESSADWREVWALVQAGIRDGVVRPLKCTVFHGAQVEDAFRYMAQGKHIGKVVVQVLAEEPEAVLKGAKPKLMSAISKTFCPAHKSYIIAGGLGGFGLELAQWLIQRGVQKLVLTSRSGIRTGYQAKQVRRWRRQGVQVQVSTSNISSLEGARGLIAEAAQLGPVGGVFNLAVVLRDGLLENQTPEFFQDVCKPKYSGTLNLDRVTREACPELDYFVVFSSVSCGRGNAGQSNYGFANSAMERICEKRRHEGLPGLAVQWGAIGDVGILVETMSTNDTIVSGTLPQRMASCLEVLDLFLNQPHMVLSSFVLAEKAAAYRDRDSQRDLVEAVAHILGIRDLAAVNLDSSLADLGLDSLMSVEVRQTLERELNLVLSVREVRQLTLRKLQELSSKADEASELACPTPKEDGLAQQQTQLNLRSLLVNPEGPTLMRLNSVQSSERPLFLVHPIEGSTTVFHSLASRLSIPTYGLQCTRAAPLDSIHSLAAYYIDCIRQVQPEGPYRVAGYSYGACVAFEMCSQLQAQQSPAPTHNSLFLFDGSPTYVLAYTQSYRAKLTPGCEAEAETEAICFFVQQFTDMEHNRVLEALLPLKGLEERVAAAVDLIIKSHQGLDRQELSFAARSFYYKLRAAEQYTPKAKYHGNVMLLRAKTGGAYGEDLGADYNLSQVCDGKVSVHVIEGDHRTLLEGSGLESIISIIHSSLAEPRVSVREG
Test [14] addresses T3, Fatty acid synthase. Put plainly: FAS thioesterase domain inhibitors, dose response, biochemical, kinetic fluorescence intensity (AID 624326).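 Further: rate of fluorescence rise from hydrolysis of a fluorogenic O-methyl fluorescein ester substrate.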 Format: functional.

Activity calls are given as the source filed them.

Neurotensin receptor type 1, sequence (P30989 whole entry): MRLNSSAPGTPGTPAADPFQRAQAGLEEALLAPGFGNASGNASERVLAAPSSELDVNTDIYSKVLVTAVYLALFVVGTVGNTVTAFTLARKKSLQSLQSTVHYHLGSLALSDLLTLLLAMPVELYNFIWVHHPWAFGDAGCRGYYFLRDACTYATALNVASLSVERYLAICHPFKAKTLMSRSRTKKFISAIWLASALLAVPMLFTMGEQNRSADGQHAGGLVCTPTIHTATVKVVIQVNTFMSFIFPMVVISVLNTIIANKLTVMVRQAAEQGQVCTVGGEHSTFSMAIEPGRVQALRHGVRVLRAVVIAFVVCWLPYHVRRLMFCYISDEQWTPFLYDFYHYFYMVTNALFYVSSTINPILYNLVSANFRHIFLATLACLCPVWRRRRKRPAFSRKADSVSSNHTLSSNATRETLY

As to `CC1=NNC(=O)/C1=C\c1cn(-c2ccccc2)nc1-c1cccs1`, the EC50 in test [1] was 5.14 µM (active); in the test with BJ [4] it was 4.55 µM (inconclusive); in test [5], 7.38 µM (active); at Protein RecA, 1.44 µM (active); in test [7], 5.32 µM (active); in [8], 7.11 µM (active). Besides, the EC50 in the test on BJ [12] was 13 µM (active). In addition, the CC50 is 9.49 µM (active) in [2], 7.31 µM (active) in test [3], 10.9 µM (active) in the test with Vero and 9.79 µM (active) in test [11]. In addition, the values for the AC50 (in the test on INS1; in test [6]; in [9]) were 7.34 µM (active), 3.97 µM (active) and 1.87 µM (active), respectively. The IC50 is 49.8 µM (inactive) on Beta Lactamase, > 100 µM (active) at Genome polyprotein, 24.8 µM (active) in “cells” and 1.55 µM (active) in test [10].

Take `CCOC(=O)[C@]12Cc3cc(C)ccc3[C@H]1N(C1CCCCC1)C(=O)c1ccccc12`: the IC50 on Beta Lactamase is 39 µM (inactive); at Fatty acid synthase [13], 6.98 µM (active); on Fatty acid synthase [14], 6.17 µM (active); in test [10] it was 2.28 µM (active).
